Melting point data for 90 compounds are collected here from a melting point compilation (Tetko et al.; mined from patent text by program, amines drawn as free bases though some values may be those of a salt).

Residues, ends and D or L forms follow the SMILES beside them. *: point of attachment. OiPr = CC(C)O*

The melting point is the temperature of the solid-liquid transition.

As for `OC(CCCN1CCC(O)(c2ccc(Cl)cc2)CC1)c1ccc(F)cc1` (stereo not given), the melting point fell in the range of 128 to 130 °C.

For `CN1CCC(=O)N(c2ccccc2)c2cc(Cl)ccc21`, the melting point was 143 to 144 °C. As for `N#CC(C#N)=C1N(CCCCN2CCCCC2)CCN1CCN1CCCCC1`, the figure is 78 to 79 °C; as for `CCc1cccc(C)c1C(=O)N[C@@H](Cc1ccc([N+](=O)[O-])cc1)C(=O)OC`, 119 to 121 °C. The figure for `CCCN1N=C2C(=Cc3ccc(OC)cc3)CSCC2C1c1ccc(OC)cc1` (stereo not given) is 150 to 152 °C. The figure for `CC(C)(CF)C(O)C(c1ccc(Cl)cc1Cl)n1cncn1` (stereo not given) is 98 to 100 °C; for `CNC(Cc1cc(Br)cc(Br)c1N)c1sccc1C` (stereo not given) it is 141 to 143 °C; for `NC(Cc1coc2c(Cl)cccc12)=NO` it is 142 to 145 °C.

Consider `Nc1nc(N)nc(Cc2cc3ccccc3s2)n1`, for which the melting point was 216 to 218 °C. The figure for `CCc1nc2cnc3cc(C=CC(=O)N(C)C)ccc3c2n1CC(C)(C)O` is 196 to 198 °C; for `OC1CCN(c2nc(-c3ccccc3)cc(-c3ccc4c(c3)OCO4)n2)CC1` it is 120 to 122 °C; for `Cc1cc(C(=O)NC(=N)N)no1` it is 192 °C. The figure for `Cn1cc(-c2cc(-c3cnc4[nH]ccc4c3)ccn2)n(-c2ccc(C(C)(C)C#N)cc2)c1=O` is 248 °C. As for `CCCCc1c[nH]c2cccc(SC)c2c1=O`, the figure is 144 °C; as for `CC(=CC(=O)O)Sc1c[nH]c2ccccc12`, 201 to 202 °C. As for `CCCC(=O)c1c[nH]c2c(F)cccc2c1=O`, the melting point lay within 176 to 178 °C.

For the compound `CNC(=O)Nc1cccc(C(=O)Nc2ccccn2)c1`, the melting point is 163 to 164 °C. As for `COC(=O)c1c(C)c(-c2cc(OC)c(Cl)cc2F)nn1C`, the figure is 135 to 137 °C. As for `Nc1cccc2c1S(=O)(=O)CC2`, the figure is 117 to 119 °C; as for `CC(C)OCCCNC(=O)c1n[nH]cc1NC(=O)c1ccccn1`, 152 to 153 °C; as for `CC(=O)Nc1cc([N+](=O)[O-])ccc1OCCCCl`, 130 °C. The figure for `O=[N+]([O-])c1cc(OCc2ccccc2)cc(C2CO2)c1` (stereo not given) is 54 to 55 °C; for `CC(=O)Nc1cc(I)c(-c2cc([N+](=O)[O-])c(NC(C)=O)cc2I)cc1[N+](=O)[O-]` it is 296 to 298 °C. `Cc1c[nH]c2c(C=O)cccc12` displayed a melting point of 77 to 79 °C. As for `O[C@@H](CNC1CN(C(c2ccccc2)c2ccccc2)C1)COc1ccc(OCc2ccccc2)cc1`, the figure is 109 to 110 °C.

In turn, `CCOC(=O)c1cnc2cc(OC)c(OC)cc2c1Cl` displayed a melting point of 147 to 150 °C.

In the case of `OC(=S)Cc1cc(Cl)ccc1Cl`, the melting point was 118 °C. As for `CCOC(=O)CCCOc1ccc(CC(C)(C)N)cc1`, the figure is 103 to 105 °C; as for `COc1cc(C)c(-c2c(C)cncc2C)c(C)c1`, 87 to 88 °C. As for `Cc1ccc(Cl)c(N2C(=O)C(=O)c3ccccc32)c1Cl`, the figure is 164 to 166 °C. Compound `CC(=O)NC[C@H]1CN(c2ccc(N3CCSCC3)c(F)c2)C(=O)O1` gave a melting point of 186 °C. The figure for `O=C(NCc1cc(C(F)(F)F)cc(C(F)(F)F)c1)c1oc(=O)c2ncccc2c1-c1ccccc1` is 129 to 130 °C.

`O=C(O)CC1(O)CCC(N2CCN(CCCNc3ccncc3)CC2)CC1` (stereo not given): the melting point worked out at 242 °C. As for `CS(=O)(=O)Nc1cccc(Nc2nc(N3CCN(c4ccncc4)CC3)c3nc[nH]c3n2)c1`, the figure is 227 to 230 °C; as for `COc1ccc(/C=C(\CSC(C)=O)C(=O)O)cc1`, 155 °C; as for `Cc1cc(-c2cc(C(F)F)nn2-c2ccc(S(C)(=O)=O)c(F)c2)ccc1-c1cscn1`, 123 °C. `O=C(O)[C@H]1Cc2ccccc2CN1S(=O)(=O)c1ccc([N+](=O)[O-])cc1` displayed a melting point of 140 °C. `CC(C)c1cc([N+](=O)[O-])c(O)c(C(C)C)c1NC(=O)CN1CCN(CCSc2nc3ccccc3o2)CC1` showed a melting point of 139 to 141 °C. As for `CC(C)(C)OC(=O)N1CCC(Cc2cn(S(=O)(=O)c3ccccc3)c3ccc(F)cc23)CC1`, the figure is 155 to 157 °C; as for `COc1cc(C2CCN(C[C@H](O)CO)CC2)ccc1Nc1ncc2ccc(-c3ccccc3N(C)S(C)(=O)=O)n2n1`, 108 to 116 °C.

With `NNc1nc2c(Cl)cccc2s1`, the melting point lay within 232 to 235 °C. For the compound `NC(=S)Nc1ccccc1-c1ccc(F)cc1`, the melting point was 140 to 142 °C. `Cc1cc(OC(C)c2sc(-c3ccc(C(F)(F)F)cc3F)nc2C)ccc1OC(C)(C)C(=O)O` (stereo not given) showed a melting point of 133 °C. The figure for `CCOc1ccc2c(c1)n(-c1ccccc1Cl)c(=O)n2Cc1ccc(NC(=O)N(CC)CC)cc1OC` is 150 °C; for `Cc1cc(=O)c(C(=O)OC2CCCCC2)nn1-c1ccc(Cl)cc1` it is 160 to 162 °C. As for `CS(=O)(=O)c1ccc(Oc2ccc(Cl)c(Cl)c2)c(C#N)c1`, the figure is 162 to 163 °C; as for `COCCc1ccc(OCC(O)CO)cc1` (stereo not given), 25 °C. The figure for `Cc1ccc(S(=O)(=O)N2[C@H](CCCc3nc(C)no3)CC[C@@H]2c2ccc(F)cc2)cc1` (racemic) is 91 °C; for `O=C(CC(O)(c1cc(Cl)cc(Cl)c1)C(F)(F)F)c1ccc(Br)c2ccccc12` (stereo not given) it is 74.5 to 75 °C. The compound `CC(C)(C)OC(=O)N[C@H](Cc1c[nH]c2ccccc12)C(N)=O` returned a melting point of 142 to 143 °C. `O=C(O)CCCCCCCCCC#CC#Cc1ccco1` displayed a melting point of 62.6 to 63.5 °C. The figure for `Cc1cccc(OCCCN2CCC(C(O)(c3ccc(F)cc3)c3ccc(F)cc3)CC2)c1` is 112 to 114 °C; for `COC(=O)c1ccc(Cc2ccc(NC(C)=O)cc2)cn1` it is 175 to 177 °C; for `C#CCN1Cc2cccc3cccc(c23)C1=O` it is 139 to 140 °C. The figure for `COc1ccc(S(C)(=O)=O)cn1` is 85 to 86.5 °C; for `NS(=O)(=O)c1cccc2cc[nH]c12` it is 125 to 127 °C.

The compound `O=c1[nH]c(=O)n(C2OC(CO)C(O)C2F)cc1Br` (stereo not given) had a melting point of 214 to 216 °C.

Compound `O=C(NCc1ccccc1)c1ccc(C=CC(=O)N2CCc3c([nH]c4ccccc34)C2c2ccc3c(c2)OCO3)cc1` (stereo not given) returned a melting point of 203 °C. As for `O=[N+]([O-])c1cn2c(n1)OC[C@@H](OCc1cnc(Cl)cn1)C2`, the figure is 181 to 183 °C; as for `CCONC(CC)=C1C(=O)CC(C(C)(C)Sc2ccc(C)cc2)CC1=O` (stereo not given), 77.5 to 79 °C; as for `CNC(=O)N(O)C(C)c1ccc(F)cc1` (stereo not given), 130 to 133 °C. The figure for `COc1ccc(C2=NN(CCc3ccccc3)C(=O)[C@H]3CCCC[C@@H]23)cc1OC` (relative stereo) is 99 to 100 °C. As for `c1ccc(C2CCN=C(c3csnn3)N2)cc1` (stereo not given), the figure is 158 °C; as for `CCOC(=O)COc1cc(C)c(C)c2c1CCC2=O`, 100 to 101 °C.

In turn, `Cc1ccsc1CNC(=O)C(=O)NCCc1ccccn1` came in with a melting point of 122 to 124 °C. The compound `COc1ccccc1N1CCN(CCCNC(=O)c2csc3c(=O)cc(-c4ccccc4)oc23)CC1` displayed a melting point of 161 to 162 °C. The figure for `CC(C)OC(=O)C(CO)NC(=O)C(CC(=O)O)NC(=O)C1CCCN1` (stereo not drawn) (H-Pro-Asp-Ser-OiPr; configuration not given here) is 230 to 233 °C.

`Cc1ccnc(-c2cccc([N+](=O)[O-])c2)c1` yielded a melting point of 80 to 82 °C. As for `COc1cc(C(=O)Nc2cc(F)ccc2C(=O)O)cc(OC)c1OC`, the figure is 232 to 233 °C. `Cc1cccc(C)c1OCC(=O)NC(C)C(N)=O` (stereo not given) showed a melting point of 177 to 178 °C. As for `COc1ccc(C(=O)Nc2ccc(Cl)c(Cl)c2)cc1NCc1cccc(F)c1`, the figure is 153 to 155 °C; as for `COc1ccc(C(=O)C=Cc2cccc([N+](=O)[O-])c2)c(OC)c1OC`, 130 to 131 °C.

As for `O=C(NCc1ccccc1)OCc1noc(-c2ccc(CN3CCCCCC3)s2)n1`, the melting point was in the range of 129 to 130 °C. As for `O=C(O)/C=C/c1ccc(-c2nc3c(=O)n(CC4CCC4)c(=O)n(CC4CCC4)c3[nH]2)cc1`, the figure is more than 300 °C; as for `CC1(C)OCC(NC(=O)c2ccc([N+](=O)[O-])cc2)CO1`, 211 °C. The figure for `CC(C)(C)Sc1c(CC(C)(C)C(=O)O)n(Cc2ccc(Cl)cc2)c2ccc(OCc3cc4ccccc4cn3)cc12` is 228 °C; for `CCOc1ccc(-c2nc(CCC(=O)c3ccccc3OC)cs2)cc1OCC` it is 68.9 to 69.3 °C; for `COc1ccc2c(c1)c(Cc1cc(=O)n(-c3cccc(C)c3)[nH]1)c(C)n2C(=O)c1ccc(Cl)cc1` it is 120 to 122 °C. The figure for `O=[N+]([O-])c1cnc2ccc(Cl)cc2c1Cl` is 118 to 120 °C; for `O=C(O)C1(C(=O)O)CCOCCOCCOCCOCC1` it is 107 to 111 °C; for `O=C(c1ccc(F)c(Br)c1)N1CCC(Br)C(c2ccccc2)=N1` (stereo not given) it is 147 to 148 °C. The compound `CC(=Cc1ccc(N(C)C)cc1Br)[N+](=O)[O-]` returned a melting point of 102 to 103 °C. In turn, `COC(=O)C(C)c1ccc2c(c1)C(=O)Cc1cccnc1S2` (stereo not given) returned a melting point of 98 to 99.5 °C. Consider `O=C(O)CN(C(=O)OCc1ccccc1)c1ccc(O)cc1`, for which the melting point was 196 to 198 °C. In the case of `CC1(C)Oc2cccc(O)c2O1`, the melting point was 88 to 90 °C.

Compound `CC(C)(C(=O)c1ccc(N2CCCCC2)cc1)N1CCOCC1` yielded a melting point of 159 to 162 °C. The figure for `CCCC[C@H](NS(=O)(=O)c1ccc(Br)cc1)C(=S)Nc1ccc(CC(=O)O)cc1` is 194 to 195 °C; for `CC(C)(C)CC(C)(C)c1ccc(OS(=O)(=O)c2ccc(C(C)(C)C)cc2)cc1` it is 68 to 71 °C; for `CC(=O)c1ccc(-n2c(-c3cc(-c4ccc(S(C)(=O)=O)cc4)c(N4CCOCC4)s3)nc3ccccc3c2=O)cc1` it is 239 to 242 °C. As for `O=[N+]([O-])c1ccc(Oc2ccc(C(F)(F)F)cc2Cl)cc1C=NO`, the figure is 111 to 115 °C.
